What was measured:
Experiment in all cases: biochemical
Set-up in all cases: Thermo Fisher in vitro kinase panel, per cent inhibition of kinase activity at 10 uM
BLK = BLK (Homo sapiens, UniProt P51451)
Description: (§1) Kinase profiling of SMER28 and analogs SMER28 and analogs were tested at 10 µM in a panel of 123 kinases at ThermoFisher Scientific. Follow-up of selected kinases for SMER28 and analogs was also performed at ThermoFisher Scientific. Data are shown in Supplementary Data 2 and 3. […] An inhibition of PIK3C could induce autophagy, mediated by signaling through the AKT/mTOR axis[45].

EEF2K = EEF2K (Homo sapiens, UniProt O00418)
Chain of EEF2K (O00418 whole entry): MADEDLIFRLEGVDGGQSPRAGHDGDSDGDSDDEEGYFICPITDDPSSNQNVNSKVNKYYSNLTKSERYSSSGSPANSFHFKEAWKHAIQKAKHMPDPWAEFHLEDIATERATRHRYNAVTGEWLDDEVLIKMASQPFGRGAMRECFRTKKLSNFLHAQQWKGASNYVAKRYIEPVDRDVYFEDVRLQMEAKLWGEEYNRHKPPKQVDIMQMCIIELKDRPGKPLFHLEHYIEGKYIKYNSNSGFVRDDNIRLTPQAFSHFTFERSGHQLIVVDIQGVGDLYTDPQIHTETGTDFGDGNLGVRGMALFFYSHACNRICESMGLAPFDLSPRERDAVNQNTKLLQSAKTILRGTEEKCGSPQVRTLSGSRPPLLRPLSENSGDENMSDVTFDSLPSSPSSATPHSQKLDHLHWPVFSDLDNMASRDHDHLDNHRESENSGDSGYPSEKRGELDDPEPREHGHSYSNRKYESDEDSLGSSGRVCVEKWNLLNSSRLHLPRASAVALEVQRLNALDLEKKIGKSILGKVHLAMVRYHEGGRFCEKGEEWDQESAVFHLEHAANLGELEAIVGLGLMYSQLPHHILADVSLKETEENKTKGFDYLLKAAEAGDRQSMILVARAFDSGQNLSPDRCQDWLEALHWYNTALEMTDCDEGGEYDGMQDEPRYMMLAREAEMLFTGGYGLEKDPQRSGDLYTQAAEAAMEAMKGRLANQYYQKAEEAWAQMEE
Description: as §1

EGFR (ErbB1) = EGFR (ErbB1) (Homo sapiens, UniProt P00533)
Description: as §1

FLT1 (VEGFR1) = FLT1 (VEGFR1) (Homo sapiens, UniProt P17948)
Description: as §1

FRAP1 (mTOR) = FRAP1 (mTOR) (Homo sapiens, UniProt P42345)
Description: as §1

FYN = FYN (Homo sapiens, UniProt P06241)
Chain of FYN (P06241 whole entry): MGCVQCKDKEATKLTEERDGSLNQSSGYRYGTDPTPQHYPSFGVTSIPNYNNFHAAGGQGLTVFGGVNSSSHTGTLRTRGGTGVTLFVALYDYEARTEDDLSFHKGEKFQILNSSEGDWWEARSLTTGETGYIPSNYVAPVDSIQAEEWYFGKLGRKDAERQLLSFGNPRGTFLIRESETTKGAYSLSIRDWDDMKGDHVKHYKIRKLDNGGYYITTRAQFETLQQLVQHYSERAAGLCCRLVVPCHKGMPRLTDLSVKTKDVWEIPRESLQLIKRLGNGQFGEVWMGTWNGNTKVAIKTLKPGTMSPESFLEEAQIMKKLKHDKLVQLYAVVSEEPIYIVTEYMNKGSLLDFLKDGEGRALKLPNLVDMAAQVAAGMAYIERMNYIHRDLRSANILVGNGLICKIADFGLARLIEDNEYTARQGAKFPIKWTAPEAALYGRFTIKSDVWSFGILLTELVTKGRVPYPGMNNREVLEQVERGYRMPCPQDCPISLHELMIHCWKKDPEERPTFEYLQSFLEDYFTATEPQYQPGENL
Description: as §1

IKBKB (IKK beta) = IKBKB (IKK beta) (Homo sapiens, UniProt O14920)
Description: as §1

KDR (VEGFR2) = KDR (VEGFR2) (Homo sapiens, UniProt P35968)
Description: as §1

MAP2K1 (MEK1) = MAP2K1 (MEK1) (Homo sapiens, UniProt Q02750)
Chain of MAP2K1 (MEK1) (Q02750 whole entry): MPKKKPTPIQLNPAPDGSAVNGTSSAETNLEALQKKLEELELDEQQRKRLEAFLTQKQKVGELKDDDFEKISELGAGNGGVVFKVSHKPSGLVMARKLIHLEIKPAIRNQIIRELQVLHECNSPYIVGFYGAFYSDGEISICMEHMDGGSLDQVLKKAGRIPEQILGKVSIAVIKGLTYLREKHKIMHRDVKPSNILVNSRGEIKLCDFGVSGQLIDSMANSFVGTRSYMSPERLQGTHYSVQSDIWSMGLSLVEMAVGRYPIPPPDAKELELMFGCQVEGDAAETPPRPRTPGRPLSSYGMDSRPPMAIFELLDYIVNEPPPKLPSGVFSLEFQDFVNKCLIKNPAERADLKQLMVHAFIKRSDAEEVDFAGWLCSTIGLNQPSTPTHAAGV
Description: as §1

[1] = target: T1, MAPK14 (p38 alpha) Direct (Homo sapiens, UniProt Q16539)
T1 construct: Direct
Description: as §1

MAPK8 (JNK1) = MAPK8 (JNK1) (Homo sapiens, UniProt P45983)
Description: as §1

MKNK2 (MNK2) = MKNK2 (MNK2) (Homo sapiens, UniProt Q9HBH9)
Chain of MKNK2 (MNK2) (Q9HBH9 whole entry): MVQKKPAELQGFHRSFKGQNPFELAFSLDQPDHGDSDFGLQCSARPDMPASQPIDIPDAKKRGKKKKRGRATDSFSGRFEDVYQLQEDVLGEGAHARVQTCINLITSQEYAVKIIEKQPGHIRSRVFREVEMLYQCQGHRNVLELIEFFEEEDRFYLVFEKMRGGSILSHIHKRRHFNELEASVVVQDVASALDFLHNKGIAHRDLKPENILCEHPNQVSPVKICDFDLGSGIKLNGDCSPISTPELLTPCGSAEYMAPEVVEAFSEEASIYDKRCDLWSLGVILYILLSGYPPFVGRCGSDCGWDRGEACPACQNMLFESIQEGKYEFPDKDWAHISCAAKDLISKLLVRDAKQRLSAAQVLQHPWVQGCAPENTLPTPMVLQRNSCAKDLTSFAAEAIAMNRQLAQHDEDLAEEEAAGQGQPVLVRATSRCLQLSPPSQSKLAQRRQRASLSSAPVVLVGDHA
Description: as §1

PAK1 = PAK1 (Homo sapiens, UniProt Q13153)
Chain of PAK1 (Q13153 whole entry): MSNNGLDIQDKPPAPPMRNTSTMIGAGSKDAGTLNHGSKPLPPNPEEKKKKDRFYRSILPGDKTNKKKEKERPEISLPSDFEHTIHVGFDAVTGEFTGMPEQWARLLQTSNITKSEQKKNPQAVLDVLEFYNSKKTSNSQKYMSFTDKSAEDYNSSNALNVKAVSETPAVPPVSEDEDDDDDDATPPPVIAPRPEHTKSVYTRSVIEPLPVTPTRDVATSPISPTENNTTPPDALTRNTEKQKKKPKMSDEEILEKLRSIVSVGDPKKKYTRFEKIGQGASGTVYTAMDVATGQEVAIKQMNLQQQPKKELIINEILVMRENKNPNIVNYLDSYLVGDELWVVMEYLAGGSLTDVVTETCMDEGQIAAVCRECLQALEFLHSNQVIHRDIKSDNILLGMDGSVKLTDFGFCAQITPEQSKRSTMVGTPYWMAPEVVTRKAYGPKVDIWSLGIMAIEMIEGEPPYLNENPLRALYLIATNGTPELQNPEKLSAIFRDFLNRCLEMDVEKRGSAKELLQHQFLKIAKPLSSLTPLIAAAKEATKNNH
Description: as §1

PAK2 (PAK65) = PAK2 (PAK65) (Homo sapiens, UniProt Q13177)
Chain of PAK2 (PAK65) (Q13177 whole entry): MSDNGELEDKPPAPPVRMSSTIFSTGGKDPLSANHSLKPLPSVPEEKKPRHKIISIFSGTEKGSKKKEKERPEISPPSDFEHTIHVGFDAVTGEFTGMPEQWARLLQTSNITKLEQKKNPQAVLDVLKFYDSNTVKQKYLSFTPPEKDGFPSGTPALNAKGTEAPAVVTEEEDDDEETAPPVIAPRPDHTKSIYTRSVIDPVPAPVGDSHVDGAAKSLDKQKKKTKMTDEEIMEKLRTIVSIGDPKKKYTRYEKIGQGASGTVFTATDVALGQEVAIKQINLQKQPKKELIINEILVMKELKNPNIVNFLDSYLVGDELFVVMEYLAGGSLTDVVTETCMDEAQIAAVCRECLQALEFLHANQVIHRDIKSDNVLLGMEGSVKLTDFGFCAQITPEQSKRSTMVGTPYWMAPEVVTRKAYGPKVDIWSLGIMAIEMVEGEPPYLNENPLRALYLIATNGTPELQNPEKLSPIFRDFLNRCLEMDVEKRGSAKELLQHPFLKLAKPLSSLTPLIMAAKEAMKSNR
Description: as §1

PAK4 = PAK4 (Homo sapiens, UniProt O96013)
Description: as §1

PDGFRB (PDGFR beta) = PDGFRB (PDGFR beta) (Homo sapiens, UniProt P09619)
Description: as §1

PRKG1 = PRKG1 (Homo sapiens, UniProt Q13976)
Description: as §1

RAF1 (cRAF) Y340D Y341D = RAF1 (cRAF) Y340D Y341D (Homo sapiens, UniProt P04049, Y340D/Y341D)
Description: as §1

RET = RET (Homo sapiens, UniProt P07949)
Description: as §1

ROCK2 = ROCK2 (Homo sapiens, UniProt O75116)
Description: as §1

RPS6KA1 (RSK1) = RPS6KA1 (RSK1) (Homo sapiens, UniProt Q15418)
Chain of RPS6KA1 (RSK1) (Q15418 whole entry): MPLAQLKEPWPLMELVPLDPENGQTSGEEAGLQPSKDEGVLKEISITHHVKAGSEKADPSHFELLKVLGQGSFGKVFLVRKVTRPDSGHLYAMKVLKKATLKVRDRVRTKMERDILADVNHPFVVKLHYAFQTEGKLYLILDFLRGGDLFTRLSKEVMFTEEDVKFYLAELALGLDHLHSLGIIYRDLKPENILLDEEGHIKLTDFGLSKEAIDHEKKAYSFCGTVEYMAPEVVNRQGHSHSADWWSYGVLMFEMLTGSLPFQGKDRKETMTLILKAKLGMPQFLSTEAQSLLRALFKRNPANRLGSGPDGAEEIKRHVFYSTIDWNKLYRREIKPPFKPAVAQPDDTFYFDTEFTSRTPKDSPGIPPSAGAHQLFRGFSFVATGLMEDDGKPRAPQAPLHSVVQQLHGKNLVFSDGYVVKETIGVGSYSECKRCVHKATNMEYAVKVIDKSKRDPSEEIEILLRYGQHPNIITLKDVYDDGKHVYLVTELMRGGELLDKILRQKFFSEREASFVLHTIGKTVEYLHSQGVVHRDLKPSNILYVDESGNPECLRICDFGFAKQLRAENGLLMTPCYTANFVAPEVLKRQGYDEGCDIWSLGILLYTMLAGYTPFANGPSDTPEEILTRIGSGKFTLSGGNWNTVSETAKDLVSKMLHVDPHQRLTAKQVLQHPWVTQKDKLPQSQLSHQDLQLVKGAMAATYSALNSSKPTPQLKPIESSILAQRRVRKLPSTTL
Description: as §1

RPS6KA5 (MSK1) = RPS6KA5 (MSK1) (Homo sapiens, UniProt O75582)
Description: as §1

RPS6KB1 (p70S6K) = RPS6KB1 (p70S6K) (Homo sapiens, UniProt P23443)
Chain of RPS6KB1 (p70S6K) (P23443 whole entry): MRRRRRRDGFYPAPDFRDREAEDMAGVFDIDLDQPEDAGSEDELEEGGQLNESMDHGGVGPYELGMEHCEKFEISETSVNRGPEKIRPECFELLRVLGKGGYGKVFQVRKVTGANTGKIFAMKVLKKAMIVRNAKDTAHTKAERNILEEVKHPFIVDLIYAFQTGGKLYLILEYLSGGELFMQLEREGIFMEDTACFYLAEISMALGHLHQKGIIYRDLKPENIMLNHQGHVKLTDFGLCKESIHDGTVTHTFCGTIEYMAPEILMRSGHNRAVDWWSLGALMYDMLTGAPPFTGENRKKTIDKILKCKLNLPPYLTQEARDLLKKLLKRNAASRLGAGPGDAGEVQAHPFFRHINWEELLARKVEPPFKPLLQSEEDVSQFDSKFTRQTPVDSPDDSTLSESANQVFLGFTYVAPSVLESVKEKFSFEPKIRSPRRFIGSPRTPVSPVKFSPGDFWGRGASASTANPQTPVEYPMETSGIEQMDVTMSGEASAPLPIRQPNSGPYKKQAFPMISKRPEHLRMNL
Description: as §1

SRPK1 = SRPK1 (Homo sapiens, UniProt Q96SB4)
Description: as §1

SYK = SYK (Homo sapiens, UniProt P43405)
Description: as §1

Chain of BLK (P51451 whole entry): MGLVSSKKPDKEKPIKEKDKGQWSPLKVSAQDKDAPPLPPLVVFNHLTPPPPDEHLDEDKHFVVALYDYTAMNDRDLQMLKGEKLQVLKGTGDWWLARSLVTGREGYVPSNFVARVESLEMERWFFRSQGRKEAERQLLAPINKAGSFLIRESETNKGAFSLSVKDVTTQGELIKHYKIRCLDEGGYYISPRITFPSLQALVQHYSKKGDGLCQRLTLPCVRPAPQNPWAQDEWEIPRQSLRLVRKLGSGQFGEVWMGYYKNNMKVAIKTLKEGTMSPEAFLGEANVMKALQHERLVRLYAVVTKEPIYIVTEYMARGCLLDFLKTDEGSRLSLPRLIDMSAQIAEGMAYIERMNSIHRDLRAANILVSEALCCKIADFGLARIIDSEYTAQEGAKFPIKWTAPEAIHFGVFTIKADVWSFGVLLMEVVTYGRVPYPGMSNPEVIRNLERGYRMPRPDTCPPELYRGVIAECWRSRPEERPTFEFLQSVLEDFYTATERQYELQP

`C=CCNc1ncnc2ccc(Br)cc12` [SMER28] gave an inhibition at 10 µM (BLK) of 4%, an inhibition at 10 µM (EEF2K) of 2% and an inhibition at 10 µM (EGFR (ErbB1)) of 12%. For the same compound, the inhibition at 10 µM (FLT1 (VEGFR1)) was 9%, the inhibition at 10 µM (FRAP1 (mTOR)) was -7% and the inhibition at 10 µM (FYN) was 9%. The inhibition at 10 µM (IKBKB (IKK beta)) was 17%, the inhibition at 10 µM (KDR (VEGFR2)) was 13% and the inhibition at 10 µM (MAP2K1 (MEK1)) was 3%. The inhibition at 10 µM [1] was 7%, the inhibition at 10 µM (MAPK8 (JNK1)) was -2% and the inhibition at 10 µM (MKNK2 (MNK2)) was 32%. For the same compound, the inhibition at 10 µM (PAK1) was 0%, the inhibition at 10 µM (PAK2 (PAK65)) was 9% and the inhibition at 10 µM (PAK4) was 0%. The inhibition at 10 µM (PDGFRB (PDGFR beta)) was 8%, the inhibition at 10 µM (PRKG1) was 6% and the inhibition at 10 µM (RAF1 (cRAF) Y340D Y341D) was 13%. For the same compound, the inhibition at 10 µM (RET) was 25%, the inhibition at 10 µM (ROCK2) was -5% and the inhibition at 10 µM (RPS6KA1 (RSK1)) was 21%. For the same compound, the inhibition at 10 µM (RPS6KA5 (MSK1)) was -3%, the inhibition at 10 µM (RPS6KB1 (p70S6K)) was 22% and the inhibition at 10 µM (SRPK1) was 5%. For the same compound, the inhibition at 10 µM (SYK) was 8%.

— PMC9288506, “Compounds activating VCP D1 ATPase enhance both autophagic and proteasomal neurotoxic protein clearance” (Nature Communications, 2022)
